The values below are quoted from earlier work in patent publication US20090156457A1, “METHODS AND MEANS FOR SCREENING FOR RHOMBOID ACTIVITY” (MEDICAL RESEARCH COUNCIL, priority 2004, published 2009).

The subject of this data set is Rhomboid.

Regarding `O=c1oc(Cl)c(Cl)c2ccccc12` [3,4-DCI], the Rhomboid activity result is “inhibit Rhomboid activity”. For the compound `Cc1ccc(S(=O)(=O)N[C@@H](Cc2ccccc2)C(=O)CCl)cc1` [TPCK], the Rhomboid activity result was “inhibit Rhomboid activity”.
